In test [1] the test system is LPS-stimulated TNFα production in THP-1 cells. Description: LPS-stimulated TNFα production inhibition test using human acute monocytic leukemia cell strain THP-1. Format: cell-based. Conditions: Homo sapiens, THP-1, 4 h, LPS 2.5 ng/mL, average values. The essentials: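 THP-1 cells were preincubated with compound for 1 h at 37 °C, then stimulated with LPS (2.5 ng/mL final) for 4 h. Supernatant TNFα was quantified by HTRF (620/665 nm ratio) against a calibration curve. IC50 came from a 4-parameter logistic fit, with no-LPS set as 100% and no-compound as 0% suppression.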

Test [2] deals with human IRAK-4 (Homo sapiens (Human), UniProt Q9NWZ3). The experiment in a line: Measurement of human IRAK-4 inhibitory activity (TR-FRET, peptide substrate phosphorylation, 10 μM ATP). Format: biochemical. Particulars: 1 nM IRAK-4, 10 μM ATP, 23° C., 30 minutes; average values. The essentials:
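With 1 nM IRAK-4, 0.5 μM biotinylated peptide and 10 μM ATP, compound incubated 30 min at 23 °C in 50 mM HEPES pH 7.2 with Mg2+/Mn2+. Stopped with EDTA plus europium-cryptate anti-phosphopeptide antibody and streptavidin-XL665, 60 min at 23 °C. Activity taken as the 665/620 nm TR-FRET ratio.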

Structures are written as SMILES.

The text below walks through data of patent publication US20240025893A1, “PYRIMIDINE-AND NITROGEN-CONTAINING BICYCLIC COMPOUND” (Asahi Kasei Pharma Corporation, priority 2020, published 2024).

Usually IC50 stands for the midpoint of a concentration-inhibition curve.

Sequence of human IRAK-4 (Q9NWZ3 whole entry): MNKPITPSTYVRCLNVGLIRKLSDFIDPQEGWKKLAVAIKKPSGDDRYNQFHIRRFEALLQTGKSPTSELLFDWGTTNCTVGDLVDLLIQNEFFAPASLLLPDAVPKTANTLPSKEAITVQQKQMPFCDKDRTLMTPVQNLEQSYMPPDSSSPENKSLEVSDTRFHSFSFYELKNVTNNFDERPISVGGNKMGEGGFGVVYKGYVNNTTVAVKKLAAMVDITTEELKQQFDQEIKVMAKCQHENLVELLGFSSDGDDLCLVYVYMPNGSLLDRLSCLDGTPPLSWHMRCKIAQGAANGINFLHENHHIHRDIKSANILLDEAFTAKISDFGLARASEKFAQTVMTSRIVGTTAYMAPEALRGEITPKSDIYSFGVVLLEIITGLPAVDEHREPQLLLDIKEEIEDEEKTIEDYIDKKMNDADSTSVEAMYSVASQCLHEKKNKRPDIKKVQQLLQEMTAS

With `Cc1cc(C(=O)N2CCN([C@H]3C[C@@H](C(=O)Nc4nc5ccc(-c6cnc(CO[C@H]7CCC[C@@H]7O)nc6)cc5s4)C3)[C@@H](C)C2)cc(C)n1` [b-04-40], the figures for the IC50 in test [1] and in test [2] were 25 nM and 0.89 nM, respectively.

Take `O=C(Nc1nc2ccc(-c3cnc(CO[C@H]4CC(F)(F)C[C@@H]4O)nc3)cc2s1)C1CC1` [a-03-01, N-(6-(2-((((1 S,2S)-4,4-Difluoro-2-hydroxycyclopentyl)oxy)methyl)pyrimidin-5-yl)benzo[d]thiazol-2-yl)cyclopropanecarboxamide]: the half-inhibitory concentration (IC50) in test [1] is 57 nM; in test [2] it was 1.41 nM.

For `O=C(Nc1nc2ccc(-c3cnc(CO[C@H]4CCC[C@@H]4O)nc3)cc2s1)C1CC(N2CCO[C@@H]3CCC[C@@H]32)C1` (stereo partly shown) [b-02-69], the IC50 in test [1] worked out at 80 nM; in test [2], 1.81 nM.

As for `C[C@H]1CN(C(=O)c2cccnc2)CCN1[C@H]1C[C@@H](C(=O)Nc2nc3ccc(-c4cnc(CO[C@H]5CCC[C@@H]5O)nc4)cc3s2)C1` [b-04-12], the 50% inhibitory concentration (IC50) is 39 nM in test [1] and 1.93 nM in test [2].

With `O=C(Nc1nc2ccc(-c3cnc(CO[C@H]4CCC[C@@H]4O)nc3)cc2s1)C1CC(N2CCCOCC2)C1` (stereo partly shown) [b-02-03], the IC50 is 166 nM in test [1] and 2.53 nM in test [2].

`CO[C@]1(C)C[C@H](C(=O)Nc2nc3ccc(-c4cnc(CO[C@H]5CCC[C@@H]5O)nc4)cc3s2)C1` [d-01-03]: the half-inhibitory concentration (IC50) in test [1] amounted to 175 nM; in test [2], 2.16 nM.

Turning to `CN(CCO)C1CC(C(=O)Nc2nc3ccc(-c4cnc(CO[C@H]5CCC[C@@H]5O)nc4)cc3s2)C1` (stereo partly shown) [b-02-72], the IC50 was found to be 162 nM in test [1] and 1.47 nM in test [2].

Regarding `C[C@H]1CN(C(=O)CC2CCOCC2)CCN1[C@H]1C[C@@H](C(=O)Nc2nc3ccc(-c4cnc(CO[C@H]5CCC[C@@H]5O)nc4)cc3s2)C1` [b-04-04], the half-maximal inhibitory concentration (IC50) in test [1] was 49 nM; in test [2], 2.69 nM.

In the case of `O=C(Nc1nc2ccc(-c3cnc(CO[C@H]4CCC[C@@H]4O)nc3)cc2s1)C1CC(N2CC(F)(F)C2)C1` (stereo partly shown) [b-02-12], the half-inhibitory concentration (IC50) in test [1] amounted to 170 nM; in test [2] it was 3.37 nM.

As to `O=C(Nc1nc2ccc(-c3cnc(CO[C@H]4CCC[C@@H]4O)nc3)cc2s1)C1CC(N2CCOC(C(F)(F)F)C2)C1` (stereo partly shown) [b-02-61], the figures for the IC50 in test [1] and in test [2] were 109 nM and 3.87 nM, respectively.

For the compound `C[C@H]1CN(C(=O)c2ccon2)CCN1[C@H]1C[C@@H](C(=O)Nc2cc3cc(-c4cnc(CO[C@H]5CCC[C@@H]5O)nc4)ccn3n2)C1` [e-02-26], the IC50 in test [1] was 80 nM; in test [2], 1.86 nM.

As for `CN(C1CC(C(=O)Nc2nc3ccc(-c4cnc(CO[C@H]5CCC[C@@H]5O)nc4)cc3s2)C1)C12CC(C1)C2` (stereo partly drawn) [b-03-01, 3-(Bicyclo[1,1,1]pentan-1-yl(methyl)amino)-N-(6-(2-((((1S,2S)-2-hydroxycyclopentyl)oxy)methyl)pyrimidin-5-yl)benzo[d]thiazol-2-yl)cyclobutane-1-carboxamide], the IC50 in test [1] is 71 nM; in test [2] it was 1.3 nM.

For the compound `C[C@H]1COCCN1C1CC(C(=O)Nc2nc3ccc(-c4cnc(CO[C@H]5CCC[C@@H]5O)nc4)cc3s2)C1` (stereo partly shown) [b-02-06], the IC50 in test [1] stood at 66 nM; in test [2], 1.34 nM.

For `N#CC12CC(NC3CC(C(=O)Nc4nc5ccc(-c6cnc(CO[C@H]7CCC[C@@H]7O)nc6)cc5s4)C3)(C1)C2` (stereo partly shown) [b-02-42], the IC50 is 123 nM in test [1] and 1.93 nM in test [2].

As to `N#CC1(NC2CC(C(=O)Nc3nc4ccc(-c5cnc(CO[C@H]6CCC[C@@H]6O)nc5)cc4s3)C2)CC1` (stereo partly shown) [b-02-59], the half-maximal inhibitory concentration (IC50) worked out at 105 nM in test [1] and 1.51 nM in test [2].

Consider `CC(=O)N1CCN([C@H]2C[C@@H](C(=O)Nc3nc4ccc(-c5cnc(CO[C@H]6CCC[C@@H]6O)nc5)cc4s3)C2)[C@@H](C)C1` [b-05-01, (1R,3s)-3-((S)-4-Acetyl-2-methylpiperazin-1-yl)-N-(6-(2-((((1S,2S)-2-hydroxycyclopentyl)oxy)methyl)pyrimidin-5-yl)benzo[d]thiazol-2-yl)cyclobutane-1-carboxamide], for which the half-maximal inhibitory concentration (IC50) is 48 nM in test [1] and 1.9 nM in test [2].

Take `O=C(Nc1nc2ccc(-c3cnc(CO[C@H]4CCC[C@@H]4O)nc3)cc2s1)C1CC(N2CCCC(F)(F)C2)C1` (stereo partly shown) [b-02-10]: the results for the IC50 in test [1] and in test [2] were 141 nM and 3.94 nM, respectively.

Consider `CO[C@H]1CCN(C2CC(C(=O)Nc3nc4ccc(-c5cnc(CO[C@H]6CCC[C@@H]6O)nc5)cc4s3)C2)C1` (stereo partly shown) [b-02-14], for which the IC50 is 164 nM in test [1] and 2.41 nM in test [2].

Consider `C[C@H]1CN(C(=O)C2CCC2)CCN1[C@H]1C[C@@H](C(=O)Nc2nc3ccc(-c4cnc(CO[C@H]5CCC[C@@H]5O)nc4)cc3s2)C1` [b-05-07], for which the IC50 in test [1] is 44 nM; in test [2], 2.51 nM.

Regarding `O=C(Nc1nc2ccc(-c3cnc(CO[C@H]4CCC[C@@H]4O)nc3)cc2s1)[C@@H]1C[C@@H]1F` [a-01-04], the IC50 came out at 151 nM in test [1] and 1.73 nM in test [2].

On to `Cc1cc(C(=O)N2CCN([C@H]3C[C@@H](C(=O)Nc4cc5cc(-c6cnc(CO[C@H]7CCC[C@@H]7O)nc6)ccn5n4)C3)[C@@H](C)C2)cc(C)n1` [e-02-27], for which the figures for the IC50 in test [1] and in test [2] were 54 nM and 1.38 nM, respectively.

For `COCCOc1c(-c2cnc(CO[C@H]3CCC[C@@H]3O)nc2)ccc2nc(NC(=O)C3CC3)sc12` [c-04-03], the IC50 came to 184 nM in test [1] and 12.4 nM in test [2].

In the case of `CC(C)C(=O)N1CCN([C@H]2C[C@@H](C(=O)Nc3cc4cc(-c5cnc(CO[C@H]6CCC[C@@H]6O)nc5)ccn4n3)C2)[C@@H](C)C1` [e-02-07], the values for the half-inhibitory concentration (IC50) in test [1] and in test [2] were 152 nM and 1.33 nM, respectively.

For `Cc1ccnc(C(=O)N2CCN([C@H]3C[C@@H](C(=O)Nc4nc5ccc(-c6cnc(CO[C@H]7CCC[C@@H]7O)nc6)cc5s4)C3)[C@@H](C)C2)c1` [b-04-47], the IC50 in test [1] amounted to 26 nM; in test [2] it was 0.54 nM.

Take `O=C(Nc1nc2ccc(-c3cnc(CO[C@H]4CCC[C@@H]4O)nc3)c(OC[C@H]3CCOC3)c2s1)C1CC1` [c-06-03]: the results for the IC50 in test [1] and in test [2] were 277 nM and 17.1 nM, respectively.

`O=C(Nc1nc2ccc(-c3cnc(CO[C@H]4CCC[C@@H]4O)nc3)cc2s1)C1CC(N2CCOC[C@H]2C(F)(F)F)C1` (stereo partly shown) [b-02-55]: the IC50 in test [1] amounted to 150 nM; in test [2], 2.97 nM.

With `O=C(Nc1nc2ccc(-c3cnc(CO[C@H]4CCC[C@@H]4O)nc3)cc2s1)C1CC(N2CCC[C@H]2C(F)(F)F)C1` (stereo partly shown) [b-02-44], the IC50 in test [1] was 143 nM; in test [2], 3.93 nM.

For the compound `CC[C@@H]1COCCN1C1CC(C(=O)Nc2nc3ccc(-c4cnc(CO[C@H]5CCC[C@@H]5O)nc4)cc3s2)C1` (stereo partly shown) [b-02-21], the IC50 in test [1] worked out at 66 nM; in test [2], 2.12 nM.

Consider `O=C(Nc1cc2cc(-c3cnc(CO[C@H]4CCC[C@@H]4O)nc3)ccn2n1)[C@@H]1C[C@H]1F` [e-01-02], for which the results for the IC50 in test [1] and in test [2] were 225 nM and 2.48 nM, respectively.

In the case of `O=C(Nc1nc2ccc(-c3cnc(CO[C@H]4CCC[C@@H]4O)nc3)cc2s1)C1CC(N2CCC(F)(F)CC2)C1` (stereo partly shown) [b-02-04], the IC50 in test [1] stood at 146 nM; in test [2], 3.64 nM.

With `C[C@@H]1CN(C2CC(C(=O)Nc3nc4ccc(-c5cnc(CO[C@H]6CCC[C@@H]6O)nc5)cc4s3)C2)CCO1` (stereo partly shown) [b-02-08], the concentration for half-maximal inhibition (IC50) in test [1] was found to be 113 nM; in test [2], 2.76 nM.

In the case of `CCCOCc1ncc(-c2ccc3nc(NC(=O)[C@H]4C[C@@H](N5CCN(C(=O)c6ccccn6)C[C@@H]5C)C4)sc3c2)cn1` [b-04-24], the values for the IC50 in test [1] and in test [2] were 95 nM and 0.76 nM, respectively.
